Some results are limits rather than exact numbers.

For experiment [1], the system named is bovine retinal endothelial cells (BRECs). Nature of the experiment: VEGF-induced proliferation of bovine retinal endothelial cells (BrdU ELISA). The format is cell-based. Particulars: for VEGF ind BREC prolif EC50: 50 ng/ml VEGF, BrdU incorporation; for activity against VEGF-induced proliferation: in words, compared to Compounds I-VII. The procedure: METHODS. […] After another 22-24 hours the cells are treated with or without 50 ng/ml VEGF media and the test compounds in the 1% FBS media. After 30 hours BrdU is then added for the final 16 hours of the incubation. All cells are then fixed and assayed with a colorimetric BrdU ELISA kit.
Background: Uptake of a labelled nucleoside into DNA is a usual measure of proliferation.

Another experiment addresses T1, KDR (VEGFR2) kinase (Homo sapiens, UniProt P35968).
T1 construct: purchased Cell Signaling Technology
Nature of the experiment: KDR HTRF kinase assay (KinEASE-TK). Particulars: for IC50: HTRF enzyme assay, KDR (human VEGFR2); for activity against KDR: in words, compared to Compounds I-VII. The format is biochemical. The protocol: METHODS. A 7-point HTRF (Homogeneous Time Resolved Fluorescence) kinase assays were performed using a Biomek 3000 Robotic Workstation in a 96-well plate format to determine IC50 values for the test compounds for KDR (VEGFR2) kinase using KinEASE-TK kit from CisBio. This is a general kit for tyrosine kinases including KDR kinase. The KDR kinase was purchased from Cell Signaling Technology. The assay is run in two steps. The phosphorylation of the biotin-tagged generic peptide substrate ([…]) is initiated by the addition of ATP ([…]) in the presence of KDR kinase (5 ng in […] reaction mixture) in step 1 and the reaction is stopped after 30 min incubation at room temperature by the addition of a mixture containing two HTRF detection reagents and EDTA in step 2. The substrate, enzyme, and ATP dilutions were made with the buffer provided by CisBio. Compound dilutions were made either in 5% DMSO or 10:10, (DMSO:Ethanol) to prepare 4× working stock solutions. The HTRF detection reagents were an antibody to phosphotyrosine, labeled with Eu(K) (the HTRF donor), and a streptavidin-XL665 (the HTRF acceptor).
A general note: Time-resolved FRET reads energy transfer from a long-lived donor to a nearby acceptor.

For experiment [2], the system named is best-corrected visual acuity (BCVA). Particulars: intravitreal, 4 week intervals, Phase III trials; cited from earlier work.

T1 sequence (P35968 20-1356): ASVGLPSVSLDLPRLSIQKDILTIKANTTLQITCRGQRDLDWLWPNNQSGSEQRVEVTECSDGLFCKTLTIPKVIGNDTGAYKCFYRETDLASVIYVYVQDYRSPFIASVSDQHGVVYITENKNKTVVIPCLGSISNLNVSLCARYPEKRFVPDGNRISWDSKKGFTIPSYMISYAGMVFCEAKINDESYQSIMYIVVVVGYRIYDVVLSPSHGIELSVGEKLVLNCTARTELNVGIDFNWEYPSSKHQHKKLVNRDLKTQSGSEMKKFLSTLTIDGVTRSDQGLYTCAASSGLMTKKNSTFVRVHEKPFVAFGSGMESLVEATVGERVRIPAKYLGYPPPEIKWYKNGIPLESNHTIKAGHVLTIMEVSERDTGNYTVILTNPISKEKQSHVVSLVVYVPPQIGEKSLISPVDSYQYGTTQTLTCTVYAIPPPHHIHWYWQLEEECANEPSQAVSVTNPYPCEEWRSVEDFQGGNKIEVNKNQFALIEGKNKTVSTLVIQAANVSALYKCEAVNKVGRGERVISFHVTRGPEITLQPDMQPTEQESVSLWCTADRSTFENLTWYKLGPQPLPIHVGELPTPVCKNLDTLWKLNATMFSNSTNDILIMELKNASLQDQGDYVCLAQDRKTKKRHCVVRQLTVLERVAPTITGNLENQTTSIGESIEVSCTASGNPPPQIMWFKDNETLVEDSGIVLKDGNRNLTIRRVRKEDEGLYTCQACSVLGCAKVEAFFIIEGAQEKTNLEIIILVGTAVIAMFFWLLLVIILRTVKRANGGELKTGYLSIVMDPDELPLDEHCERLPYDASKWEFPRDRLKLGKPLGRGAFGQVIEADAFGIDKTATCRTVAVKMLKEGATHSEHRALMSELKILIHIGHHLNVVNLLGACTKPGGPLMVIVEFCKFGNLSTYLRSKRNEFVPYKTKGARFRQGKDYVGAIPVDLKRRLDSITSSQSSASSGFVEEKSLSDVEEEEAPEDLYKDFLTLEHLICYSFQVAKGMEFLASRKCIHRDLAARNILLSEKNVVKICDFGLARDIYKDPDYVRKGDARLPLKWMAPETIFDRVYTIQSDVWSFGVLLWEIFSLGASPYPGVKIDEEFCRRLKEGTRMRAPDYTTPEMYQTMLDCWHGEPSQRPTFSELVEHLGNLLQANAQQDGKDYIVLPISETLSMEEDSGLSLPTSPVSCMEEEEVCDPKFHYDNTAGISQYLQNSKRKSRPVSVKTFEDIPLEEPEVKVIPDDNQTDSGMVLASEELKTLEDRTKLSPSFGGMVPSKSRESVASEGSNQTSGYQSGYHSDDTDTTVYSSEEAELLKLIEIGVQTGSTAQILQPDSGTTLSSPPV

The IC50 is the midpoint of a concentration-inhibition curve. A high value points to lower potency. In the case of `Nc1n[nH]c2cccc(-c3ccc(NC(=O)Nc4c(Cl)cccc4Cl)cc3)c12` [VIII], in experiment [1], the “VEGF ind BREC prolif EC50” value is listed as “Not Active” and the “activity against VEGF-induced proliferation” value was “completely inactive”. Besides, on KDR (VEGFR2) kinase, the IC50 is greater than 10 µM and the “activity against KDR” value is “essentially have no activity”.

In the case of `Cc1ccc(F)c(NC(=O)Nc2ncc(-c3cccc4[nH]nc(N)c34)cn2)c1` [IX], in experiment [1], the “VEGF ind BREC prolif EC50” value is listed as “Not Active” and the “activity against VEGF-induced proliferation” value is “completely inactive”. For the same molecule, on KDR (VEGFR2) kinase, the half-maximal inhibitory concentration (IC50) was greater than 10 µM and the “activity against KDR” value is recorded as “essentially have no activity”.

B1: Lucentis: Fab fragment of a humanized monoclonal antibody that binds all isoforms of VEGF-A (antibody, chains of the INN, looked up, V domains shown)
VH: EVQLVESGGGLVQPGGSLRLSCAASGYDFTHYGMNWVRQAPGKGLEWVGWINTYTGEPTYAADFKRRFTFSLDTSKSTAYLQMNSLRAEDTAVYYCAKYPYYYGTSHWYFDVWGQGTLVTVSS
VL: DIQLTQSPSSLSASVGDRVTITCSASQDISNYLNWYQQKPGKAPKVLIYFTSSLHSGVPSRFSGSGSGTDFTLTISSLQPEDFATYYCQQYSTVPWTFGQGTKVEIK
modifications: Fab
Turning to B1, the “treated patients with maintained best-corrected visual acuity (BCVA)” value in experiment [2] is 95%.

The record behind these values is patent US20120004245A1, “COMPOUNDS FOR THE TREATMENT OF POSTERIOR SEGMENT DISORDERS AND DISEASES” (ALCON RESEARCH, LTD., priority 2010, published 2012).
